# According to paper PMC9919490, “Synthesis and Biological Evaluation of Novel Dispiro-Indolinones with Anticancer Activity” (Molecules, 2023):
# Legend:
# [1] = tested on: p53, PUMA, CASPASE-3 in HCTwt cells; test: Western blot, p53 and p53-dependent apoptosis proteins; assay type: cell-based
# Experimental: To verify the mechanism of cytotoxic action of the synthesized dispiro-indolinones, Western blot testing of dispiro-indolinone 29 was performed using the p53-expressing HCTwt and LNCaP cell lines. Both the p53 protein and the proteins involved in the p53-dependent process of apoptosis (i.e., BAX, NOXA, and PUMA) were determined. For comparison, similar testing was carried out for a cell line not expressing p53 (HCT^(−/−)).
# [2] = tested on: HCT^wt cells; test: MTT cytotoxicity assay, HCT^wt (p53 pos); assay type: cell-based; details: 48 h
# [3] = tested on: LNCaP cells; test: MTT cytotoxicity assay, LNCaP (p53 pos); assay type: cell-based; details: Homo sapiens, LNCaP, 48 h
# [4] = Solubility in aqueous media (observation); assay type: physicochemical; details: observed in acute toxicity pilot, doses > 2500 mg/kg not feasible
# Experimental: To select the doses, the pilot experiments were carried out on a minimum number of animals. […] When administered in large doses during autopsy in the abdominal cavities of the mice, on the inner wall and membranes of the abdominal organs, remnants of the non-absorbed drug were found in the form of white layers, indicating incomplete absorption and insufficient solubility of the agent. […] According to the data obtained from the trial experiment, in the main study—with intraperitoneal administration—a dose of 2500 mg/kg was used.
# [5] = tested on: HCT116 tumor xenografts; test: HCT116 xenograft model
# Experimental: The first implantation of HCT116 tumor cells (1 × 10^6 in a volume of 0.5 mL) was performed subcutaneously into two BALB/c nude mice. The first transplantation of the xenograft (50 mg) was performed after 30 days into 2 mice (the 3rd passage was used in vivo). […] Then, in a laminar flow hood, the tumor suspension (0.5 mL, the first passage) was implanted subcutaneously into the flank area of two BALB/c nude mice (males). After a volume of 0.8–1.0 cm^3 was achieved, the nudes were passaged using 4 donor mice to obtain the desired grade and mass of the transplants. […] The tumor nests were mechanistically disintegrated to obtain 10% of the tumor samples, and then the nutrient medium was added. The inoculation was performed using individual sterile plastic syringes (1 mL) equipped with 18G suture needles. The transplantation was carried out bilaterally in the flank areas. Each mouse was inoculated with 0.5 mL (10%) of the tumor suspension (40 mg of the tumor mass for each animal). Prior to inoculation, the animals’ skin was treated with 70% alcohol. Between injections, the Petri dish containing the tumor suspension was tightly covered to avoid any contamination. Before injection, the suspension was vigorously stirred in a syringe. […]
# [6] = tested on: HCT^−/− cells; test: MTT cytotoxicity assay, HCT^−/− (p53 neg); assay type: cell-based; details: 48 h
# [7] = tested on: P388; test: P388 transplant model in mice; assay type: in vivo; details: for ALS (average life span): control 16.6 ± 1.8 d
# Experimental: To preliminary estimate the antitumor effect of the compound in vivo, transplant P388 and HCT116 xenograft mouse models were used.
# Prior to the trials, the animals were split into different groups (five mice per group). One group was monitored as a control population, where the animals were kept untreated, while the other groups were subjected to the tested compound. […] Four independent trials were carried out.
# For the first evaluation, the sample was initially injected i.p. on day 2 of the study, and the treatment was subsequently continued during the following 9 days (total 10 d course). The typical doses were calculated considering the average body weight of the animals (20 g) and ranged between groups 1 and 3; group 4 was assigned as a control population. […] To verify the obtained results, we performed the second evaluation using the following schedule: the first group was administered i.p. with 500 mg/kg (5000 mg/kg), the second group was given 750 mg/kg (7500 mg/kg), and the third group was given 1000 mg/kg (10,000 mg/kg). We also carried out the third trial with an appropriate dose of 1000 mg/kg. For p.o. administration (trial 4), we used a single dose (170 mg/kg) of the unmodified compound; the cumulative dose was 1700 mg/kg.
# DBA2 mice were used as donors of cancerous mass; a total of 50 animals were recruited. Twenty-three conventional, immunodeficient female mice (BALB/c nude, 20–23 g) were housed in RAMS and used as donors and recipients for HCT116 cells.
# For the evaluation of the compound against leucosis in vivo, we used 5 and 8 passages of P388 culture. […]
# [8] = first trial, i.p. 295 mg/kg (g1)
# [9] = first trial, i.p. 882 mg/kg (g2)
smiles,measurement,setting,value
CCOc1ccc(N2C(=O)C3(NC2=S)C(c2ccc(Cl)cc2)CN(C)C32C(=O)Nc3ccc(Br)cc32)cc1 (stereo not shown) [Compound 29],concentration / expression of the p53 protein,"[1]; HCTwt cell culture, increasing concentration, nutlin-3a 20 µM positive control",slight increase
same,expression of CASPASE-3,[1]; Western blot,increase
same,expression of PUMA,[1]; Western blot,increase
same,IC50,[2],14.1 ± 4.2 µM
same,IC50,[3],3.5 ± 1.9 µM
same,solubility in aqueous media,[4],low solubility
same,T/C,"[5]; 1000 mg/kg i.p. o.d. 10 days, after 4 days, p = 0.0007",44%
same,T/C (treatment/control),"[5]; sample 1000 mg/kg i.p. o.d. 10 days, after 24 h, p = 0.00005",25%
same,IC50,[6],70.5 ± 15.2 µM
same,"mortality at highest dose, close to the MTD","[7]; 1263 mg/kg (12,630 mg/kg cumulative), day 3 after the treatment was stopped",one mouse (bw = 19 g) dying
same,days on which lethal outcomes were registered,[7]; [8],16 to 24 days
same,LSE (lifespan extension),"[7]; first trial, i.p. 295 mg/kg (g1), p > 0.05",17%
same,ALS (average life span),[7]; [8],19.8 ± 3.0 days
same,days on which lethal outcomes were registered,[7]; [9],18 to 22 days
same,LSE (lifespan extension),"[7]; first trial, i.p. 882 mg/kg (g2), p > 0.05",19%
same,ALS (average life span),[7]; [9],19.4 ± 1.7 days
same,days on which deaths were observed,"[7]; first trial, i.p. 1176 mg/kg (g3)",14 to 22 days
same,TGRI,"[7]; first trial, i.p. 1176 mg/kg (g3), subsequent three days",40%
same,TGRI,"[7]; first trial, i.p. 1176 mg/kg daily (g3), 24 h after the treatment was discontinued",76%
same,T/C,"[7]; first trial, i.p. o.d. 10 days, 295 and 882 mg/kg",< 42%
same,TGRI (tumor growth rate inhibition),"[7]; first trial, sample (17% compound, Pluronic F-127) i.p. o.d. 10 days, 295 mg/kg (g1) and 882 mg/kg (g2), p > 0.05",32–37%
same,TGRI,[7]; i.p. 500 mg/kg,approx. 50%
same,Т/C%,"[7]; p.o. 170 mg/kg o.d. 10 days, day 12",84%
same,"Tumor volume, av. volume","[7]; p.o. 170 mg/kg o.d. 10 days, day 12, control 570",481 mm3
same,"Tumor volume, av. volume","[7]; p.o. 170 mg/kg o.d. 10 days, day 15, control 804",1099 mm3
same,TGRI,"[7]; second trial, i.p. 750 mg/kg o.d., day 2 after the treatment was completed, p = 0.002",68%
same,TGRI,"[7]; second trial, i.p. 750 mg/kg o.d., subsequent 3 days",62%
same,LSE,"[7]; third trial, i.p. 1000 mg/kg o.d.",33.33%
same,TGRI,"[7]; third trial, i.p. 1000 mg/kg o.d. 10 days, day 2 after the treatment was completed",81.3%
same,TGRI,"[7]; third trial, i.p. 1000 mg/kg o.d., day 8 after the treatment was discontinued (final control timepoint)",93%
same,TGRI,"[7]; third trial, i.p. 1000 mg/kg o.d., following 3 days",89%
